Experimental data reported in the Kinase Knowledgebase extract (Sharma et al. 2016).

Target: PIK3CA (human) (UniProt P42336)
Assay: Assessment of PIK3CA Kinase Activity

Sequence of PIK3CA (human) (P42336 whole entry, looked up): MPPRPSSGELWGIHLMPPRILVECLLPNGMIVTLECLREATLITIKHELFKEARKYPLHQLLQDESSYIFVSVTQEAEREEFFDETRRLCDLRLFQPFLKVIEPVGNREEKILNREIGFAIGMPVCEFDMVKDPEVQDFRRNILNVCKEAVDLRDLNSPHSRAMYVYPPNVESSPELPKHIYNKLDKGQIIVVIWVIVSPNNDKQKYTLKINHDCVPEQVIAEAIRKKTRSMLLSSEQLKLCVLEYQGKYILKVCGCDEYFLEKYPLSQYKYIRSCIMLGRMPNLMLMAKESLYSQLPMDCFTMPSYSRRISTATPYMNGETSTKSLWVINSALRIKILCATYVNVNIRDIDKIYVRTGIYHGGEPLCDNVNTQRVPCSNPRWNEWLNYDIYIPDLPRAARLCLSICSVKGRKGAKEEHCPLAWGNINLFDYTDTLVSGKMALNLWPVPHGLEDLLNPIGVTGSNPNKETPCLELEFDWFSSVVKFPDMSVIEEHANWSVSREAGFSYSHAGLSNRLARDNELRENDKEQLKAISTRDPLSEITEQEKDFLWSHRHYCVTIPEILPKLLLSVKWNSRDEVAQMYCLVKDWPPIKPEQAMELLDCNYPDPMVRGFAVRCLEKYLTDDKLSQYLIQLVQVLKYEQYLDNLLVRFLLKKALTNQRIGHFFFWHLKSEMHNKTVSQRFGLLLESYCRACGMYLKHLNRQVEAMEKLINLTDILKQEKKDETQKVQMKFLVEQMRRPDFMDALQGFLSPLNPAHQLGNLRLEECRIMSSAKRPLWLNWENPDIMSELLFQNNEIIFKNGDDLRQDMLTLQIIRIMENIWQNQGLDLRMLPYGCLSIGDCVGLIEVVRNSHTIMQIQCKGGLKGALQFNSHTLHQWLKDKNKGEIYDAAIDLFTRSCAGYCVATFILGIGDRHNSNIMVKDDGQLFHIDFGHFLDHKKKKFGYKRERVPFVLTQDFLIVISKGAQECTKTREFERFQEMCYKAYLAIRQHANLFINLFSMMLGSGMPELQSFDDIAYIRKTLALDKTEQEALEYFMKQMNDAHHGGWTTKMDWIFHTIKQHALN

Compound	IC50 [nM]
Nc1ncc(-c2cnc3sc(N[C@H]4CC[C@H](N)CC4)nn23)cc1C(F)(F)F	42
CS(=O)(=O)N1CC2(CCCN(c3nn4c(-c5cnc(N)c(C(F)(F)F)c5)cnc4s3)C2)C1	50 to 1000
CCNC(=O)N[C@H]1CC[C@H](Nc2nn3c(-c4cnc(N)c(C(F)(F)F)c4)cnc3s2)CC1	5
Cc1cncc(-c2cnc3sc(NC4CCN(S(C)(=O)=O)CC4)nn23)c1	50 to 1000
CN(c1nn2c(-c3cnc(N)c(C(F)(F)F)c3)cnc2s1)[C@H]1CC[C@](C)(O)CC1	205
CN1CCN(C(=O)NCCNc2nn3c(-c4cnc(N)c(C(F)(F)F)c4)cnc3s2)CC1	262
CC(C)S(=O)(=O)N1CCC(Nc2nn3c(-c4cnc(N)c(C(F)(F)F)c4)cnc3s2)CC1	291
CS(=O)(=O)NC1CCN(c2nn3c(-c4cnc(N)c(C(F)(F)F)c4)cnc3s2)CC1	162
CN(c1nn2c(-c3cnc(N)c(C(F)(F)F)c3)cnc2s1)C1CCNCC1	50 to 1000
Nc1ncc(-c2cnc3sc(N4CCN5CCNCC5C4)nn23)cc1C(F)(F)F (stereo not given)	85
CS(=O)(=O)NCC1CCCN(c2nn3c(-c4cnc(N)c(C(F)(F)F)c4)cnc3s2)C1 (stereo not given)	102
CCNC(=O)N1CCC(N(C)c2nn3c(-c4cnc(N)c(C(F)(F)F)c4)cnc3s2)CC1	50 to 1000
CC(C)(C)OC(=O)NCCCNc1nn2c(-c3cnc(N)c(C(F)(F)F)c3)cnc2s1	50 to 1000
CCNC(=O)N[C@H]1CC[C@H](Nc2nn3c(-c4cnc(N)c(C(F)(F)F)c4)c(Cl)nc3s2)CC1	1 to 50
Nc1ncc(-c2cnc3sc(N4CCCC5(CCNCC5)C4)nn23)cc1C(F)(F)F	50 to 1000
Nc1ncc(-c2cnc3sc(N[C@H]4CC[C@H](NS(=O)(=O)c5ccc(F)cc5F)CC4)nn23)cc1C(F)(F)F	50 to 1000
Nc1ncc(-c2cnc3sc(N4CCC(C(=O)O)CC4)nn23)cc1C(F)(F)F	50 to 1000
CCNC(=O)NCCNc1nn2c(-c3cnc(N)c(C(F)(F)F)c3)cnc2s1	50 to 1000
CS(=O)(=O)N1CCC(Nc2nn3c(-c4cnc(N5CCNCC5)c(C(F)(F)F)c4)cnc3s2)CC1	1400
COc1cncc(-c2cnc3sc(NCCCNS(C)(=O)=O)nn23)c1	50 to 1000
CC(C)(C)OC(=O)N1CCC2(CC1)CC(Nc1nn3c(-c4cnc(N)c(C(F)(F)F)c4)cnc3s1)C2	50 to 1000
Nc1ncc(-c2cnc3sc(N4CCCC(CO)C4)nn23)cc1C(F)(F)F (stereo not given)	179
Nc1ncc(-c2cnc3sc(N4CCCC(C(=O)O)C4)nn23)cc1C(F)(F)F (stereo not given)	50 to 1000
c1cc(-c2cnc3sc(N4CCOCC4)nn23)c2cn[nH]c2c1	50 to 1000

Compound	IC50 [nM]
CC(C)(C)OC(=O)N1CCN(c2nn3c(-c4cnc(N)c(C(F)(F)F)c4)cnc3s2)CC1	50 to 1000
CN1CCC(CNc2nn3c(-c4cnc(N)c(C(F)(F)F)c4)cnc3s2)CC1	301
CC(=O)O[C@H]1CC[C@H](Nc2nn3c(-c4cnc(N)c(C(F)(F)F)c4)c(Cl)nc3s2)CC1	50 to 1000
COC1CCN(c2nn3c(-c4cnc(N)c(C(F)(F)F)c4)cnc3s2)CC1	50 to 1000
NCCCNc1nn2c(-c3cnc(N)c(C(F)(F)F)c3)cnc2s1	50 to 1000
CS(=O)(=O)N1CC2CN(c3nn4c(-c5cnc(N)c(C(F)(F)F)c5)cnc4s3)CC2C1 (stereo not given)	34
Nc1ncc(-c2cnc3sc(N[C@H]4CC[C@@H](O)CC4)nn23)cc1C(F)(F)F	77
CS(=O)(=O)N1CCN2CCN(c3nn4c(-c5cnc(N)c(C(F)(F)F)c5)cnc4s3)CC2C1 (stereo not given)	94
CS(=O)(=O)N1CCC(Nc2nn3c(-c4cncc(C#N)c4)cnc3s2)CC1	50 to 1000
CN(c1nn2c(-c3cnc(N)c(C(F)(F)F)c3)cnc2s1)C1CCN(C(=O)OC(C)(C)C)CC1	50 to 1000
CC(C)(C)OC(=O)N1CCC2(CCCN(c3nn4c(-c5cnc(N)c(C(F)(F)F)c5)cnc4s3)C2)CC1	50 to 1000
CCNC(=O)N[C@H]1CC[C@@H](Nc2nn3c(-c4cnc(N)c(C(F)(F)F)c4)c(Cl)nc3s2)CC1	50 to 1000
CNC(=O)C1CCCN(c2nn3c(-c4cnc(N)c(C(F)(F)F)c4)cnc3s2)C1 (stereo not given)	213
CC(C)(C)OC(=O)NCC1CCN(c2nn3c(-c4cnc(N)c(C(F)(F)F)c4)cnc3s2)CC1	50 to 1000
Nc1ncc(-c2cnc3sc(N[C@H]4CC[C@@H](N)CC4)nn23)cc1C(F)(F)F	1 to 50
C[C@]1(O)CC[C@@H](Nc2nn3c(-c4cnc(N)c(C(F)(F)F)c4)cnc3s2)CC1	22
CC(=O)NC1CCCN(c2nn3c(-c4cnc(N)c(C(F)(F)F)c4)cnc3s2)C1 (stereo not given)	274
CC(C)(C)OC(=O)N1CCC2(CC1)CCN(c1nn3c(-c4cnc(N)c(C(F)(F)F)c4)cnc3s1)CC2	1600
CO[C@H]1CC[C@H](N(C)c2nn3c(-c4cnc(N)c(C(F)(F)F)c4)cnc3s2)CC1	27
CS(=O)(=O)N1CCC(N(CCN2CCCC2)c2nn3c(-c4cnc(N)c(C(F)(F)F)c4)cnc3s2)CC1	1 to 50
Nc1ncc(-c2cnc3sc(NC4CCN(S(=O)(=O)C5CNC5)CC4)nn23)cc1C(F)(F)F	14
CS(=O)(=O)NCCNc1nn2c(-c3cnc(N)c(C(F)(F)F)c3)cnc2s1	269
CC(C)(C)OC(=O)NC1CCN(c2nn3c(-c4cnc(N)c(C(F)(F)F)c4)cnc3s2)C1 (stereo not given)	177
CC(=O)N[C@H]1CC[C@@H](Nc2nn3c(-c4cnc(N)c(C(F)(F)F)c4)cnc3s2)CC1	50 to 1000

Compound	IC50 [nM]
Nc1ncc(-c2cnc3sc(N4CCCC(N)C4)nn23)cc1C(F)(F)F (stereo not given)	50 to 1000
CCNC(=O)N1CCC(CNc2nn3c(-c4cnc(N)c(C(F)(F)F)c4)cnc3s2)CC1	1 to 50
Nc1ccc(-c2cnc3sc(N[C@H]4CC[C@H](O)CC4)nn23)cn1	50 to 1000
NCC1CCCN(c2nn3c(-c4cnc(N)c(C(F)(F)F)c4)cnc3s2)C1 (stereo not given)	50 to 1000
CN(c1nn2c(-c3cnc(N)c(C(F)(F)F)c3)cnc2s1)C1CCN(S(C)(=O)=O)CC1	62
CN1CCN(c2ncc(-c3cnc4sc(NC5CCN(S(C)(=O)=O)CC5)nn34)cc2C(F)(F)F)CC1	23000
Nc1ncc(-c2c(Cl)nc3sc(N[C@H]4CC[C@H](NS(=O)(=O)c5ccc(F)cc5F)CC4)nn23)cc1C(F)(F)F	1700
CN[C@H]1CC[C@H](N(C)c2nn3c(-c4cnc(N)c(C(F)(F)F)c4)cnc3s2)CC1	50 to 1000
CN(c1nn2c(-c3cnc(N)c(C(F)(F)F)c3)cnc2s1)C1CCC(=NOCCF)CC1 (stereo not given)	50 to 1000
CS(=O)(=O)N1CCC(Nc2nn3c(-c4cnc(N)c(C(F)(F)F)c4)c(Cl)nc3s2)CC1	24
CCNC(=O)N[C@H]1CC[C@@H](Nc2nn3c(-c4cnc(N)c(C(F)(F)F)c4)cnc3s2)CC1	63
CC(C)(C)OC(=O)N1CCN(CCNc2nn3c(-c4cnc(N)c(C(F)(F)F)c4)cnc3s2)CC1	86
Nc1ncc(-c2cnc3sc(N4CCCNC4=O)nn23)cc1C(F)(F)F	170
CC(=O)N1CCC(Nc2nn3c(-c4cnc(N)c(C(F)(F)F)c4)cnc3s2)CC1	18
Nc1ncc(-c2cnc3sc(N4CCC5(CCNCC5)CC4)nn23)cc1C(F)(F)F	141
CN(c1nn2c(-c3cnc(N)c(C(F)(F)F)c3)cnc2s1)C1CCC(=NO)CC1 (stereo not given)	82
Nc1ncc(-c2cnc3sc(NC4CCC(=NOCCF)CC4)nn23)cc1C(F)(F)F (stereo not given)	1 to 50
CS(=O)(=O)N1CCC(Nc2nn3c(-c4cncc(C(F)(F)F)c4)cnc3s2)CC1	50 to 1000
CC(C)(C)OC(=O)N1C[C@@H]2CN(c3nn4c(-c5cnc(N)c(C(F)(F)F)c5)cnc4s3)C[C@@H]2C1	119
CS(=O)(=O)NCCCNc1nn2c(-c3cnc(N)c(C(F)(F)F)c3)cnc2s1	1 to 50
Nc1ncc(-c2cnc3sc(N4CCCC(O)C4)nn23)cc1C(F)(F)F (stereo not given)	50 to 1000
Nc1ncc(-c2cnc3sc(NC[C@H]4CC[C@H](O)CC4)nn23)cc1C(F)(F)F	129
Nc1ncc(-c2cnc3sc(NC4CCNCC4)nn23)cc1C(F)(F)F	67
Nc1ncc(-c2cnc3sc(N4CCC(N)CC4)nn23)cc1C(F)(F)F	50 to 1000

Compound	IC50 [nM]
CC(C)(C)OC(=O)N[C@H]1CC[C@@H](Nc2nn3c(-c4cnc(N)c(C(F)(F)F)c4)cnc3s2)CC1	50 to 1000
COc1cncc(-c2cnc3sc(NC4CCN(S(C)(=O)=O)CC4)nn23)c1	50 to 1000
CS(=O)(=O)N1CCC2(CC1)CN(c1nn3c(-c4cnc(N)c(C(F)(F)F)c4)cnc3s1)C2	50 to 1000
Nc1ncc(-c2cnc3sc(NC4CCC5(CC4)OCCO5)nn23)cc1C(F)(F)F	34
Nc1ncc(-c2cnc3sc(N4CCC(O)CC4)nn23)cc1C(F)(F)F	50 to 1000
Nc1ncc(-c2c(Cl)nc3sc(N[C@H]4CC[C@H](N)CC4)nn23)cc1C(F)(F)F	109
CCOC(=O)C1CCCN(c2nn3c(-c4cnc(N)c(C(F)(F)F)c4)cnc3s2)C1 (stereo not given)	50 to 1000
Nc1ncc(-c2c(Cl)nc3sc(N[C@H]4CC[C@H](O)CC4)nn23)cc1C(F)(F)F	104
CS(=O)(=O)NC1CCN(c2nn3c(-c4cnc(N)c(C(F)(F)F)c4)cnc3s2)C1 (stereo not given)	50 to 1000
COc1cncc(-c2cnc3sc(NC4CCNCC4)nn23)c1	50 to 1000
COC(=O)C1CCN(c2nn3c(-c4cnc(N)c(C(F)(F)F)c4)cnc3s2)CC1	297
Nc1ncc(-c2cnc3sc(N4CC5(CCNCC5)C4)nn23)cc1C(F)(F)F	50 to 1000
Nc1ncc(-c2cnc3sc(N4CCNCC4)nn23)cc1C(F)(F)F	1300
CC(C)(C)OC(=O)N1CC(S(=O)(=O)N2CCC(Nc3nn4c(-c5cnc(N)c(C(F)(F)F)c5)cnc4s3)CC2)C1	131
CS(=O)(=O)NCC1CCN(c2nn3c(-c4cnc(N)c(C(F)(F)F)c4)cnc3s2)CC1	50 to 1000
NC(=O)C1CCN(c2nn3c(-c4cnc(N)c(C(F)(F)F)c4)cnc3s2)CC1	50 to 1000
CN(c1nn2c(-c3cnc(N)c(C(F)(F)F)c3)cnc2s1)[C@H]1CC[C@H](O)CC1	50 to 1000
CS(=O)(=O)N1CCN(c2nn3c(-c4cnc(N)c(C(F)(F)F)c4)cnc3s2)CC1	50 to 1000
NCCNc1nn2c(-c3cnc(N)c(C(F)(F)F)c3)cnc2s1	50 to 1000
Nc1ncc(-c2c(Cl)nc3sc(N[C@H]4CC[C@@H](N)CC4)nn23)cc1C(F)(F)F	50 to 1000
COc1cncc(-c2cnc3sc(NC4CCN(C(=O)OC(C)(C)C)CC4)nn23)c1	50 to 1000
CS(=O)(=O)N1CCC(Nc2nn3c(-c4cnc(N)c(C(F)(F)F)c4)cnc3s2)CC1	12
Nc1ncc(-c2cnc3sc(NCC4CCNCC4)nn23)cc1C(F)(F)F	50 to 1000
